ChEMBL document CHEMBL4616678, “Design, Synthesis, and Physicochemical and Pharmacological Profiling of 7-Hydroxy-5-oxopyrazolo[4,3-b]pyridine-6-carboxamide Derivatives with Antiosteoarthritic Activity In Vivo” (J Med Chem, 2020)
≈ marks a conversion by molar mass, not a printed value. Calls of active or inactive are those of the source.

How the values were obtained:
[1] = Induction of extracellular matrix production in human NHAC-kn cells assessed as sGAG level at 7.5 uM after 14 days by UV-visible spectrophotometer analysis (reference value: 12.0 +/- 0.4 ug); assay type: functional
Cannabinoid receptor 1 = Cannabinoid receptor 1 (Homo sapiens, UniProt P21554); assay: Displacement of [3H]-CP-55,940 from recombinant human CB1R expressed in HEK293 cell membranes
Chain of Cannabinoid receptor 1 (P21554 whole entry): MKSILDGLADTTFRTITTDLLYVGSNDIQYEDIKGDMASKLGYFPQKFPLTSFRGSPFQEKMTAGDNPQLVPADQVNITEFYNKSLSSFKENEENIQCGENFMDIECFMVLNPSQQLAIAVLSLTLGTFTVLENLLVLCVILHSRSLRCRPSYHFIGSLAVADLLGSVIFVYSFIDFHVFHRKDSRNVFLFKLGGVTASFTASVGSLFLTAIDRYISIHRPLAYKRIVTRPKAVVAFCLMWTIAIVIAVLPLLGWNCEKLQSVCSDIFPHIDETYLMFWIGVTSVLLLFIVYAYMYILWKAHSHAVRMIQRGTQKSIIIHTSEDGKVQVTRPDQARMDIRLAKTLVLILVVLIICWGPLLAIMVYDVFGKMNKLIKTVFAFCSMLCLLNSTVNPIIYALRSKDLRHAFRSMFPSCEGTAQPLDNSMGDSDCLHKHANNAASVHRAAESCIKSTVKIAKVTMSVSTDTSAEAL

[2] = Kinetic solubility of the compound at pH 7.4 by HPLC-UV method; assay type: physicochemical; details: buffer, read-out: Kinetic_solubility
Rattus norvegicus [3] = assay: Analgesic activity in MIA induced Wistar rat assessed as hind limb withdrawal threshold at 1 mg/kg, ip injection after 300 mins by PAM test; assay type: functional, organism-based
Cannabinoid receptor 2 [4] = target: T1, Cannabinoid receptor 2 (Homo sapiens, UniProt P34972); assay: Displacement of [3H]-CP-55,940 from recombinant human CB2R expressed in HEK293 cell membranes
T1 sequence (P34972 whole entry): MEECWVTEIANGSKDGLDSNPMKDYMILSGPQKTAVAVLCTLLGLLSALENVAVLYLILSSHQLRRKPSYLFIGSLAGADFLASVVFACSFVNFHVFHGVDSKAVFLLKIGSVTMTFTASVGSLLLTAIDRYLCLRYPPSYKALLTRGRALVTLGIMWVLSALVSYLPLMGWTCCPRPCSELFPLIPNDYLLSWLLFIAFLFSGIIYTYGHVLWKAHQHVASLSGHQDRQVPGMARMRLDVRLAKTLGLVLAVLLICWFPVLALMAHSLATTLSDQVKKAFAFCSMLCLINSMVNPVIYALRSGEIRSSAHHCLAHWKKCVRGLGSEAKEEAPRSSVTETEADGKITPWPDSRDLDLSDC

Rattus norvegicus [5] = assay: Analgesic activity in MIA induced Wistar rat assessed as differences in forces applied between rear left and rear right injured paws at 1 mg/kg, ip injection after 60 mins in presence of AM-630 by KWB test; assay type: functional, organism-based
[6] = Cytotoxicity against human NHAC-kn assessed as reduction in cell viability at 7.5 uM after 7 days by Neutral red dye-based UV-visible spectrophotometer analysis (reference value: 73 +/- 8%); assay type: functional
[7] = Induction of extracellular matrix production in human NHAC-kn cells assessed as HYP level at 7.5 uM after 14 days by UV-visible spectrophotometer analysis (reference value: 14.2 +/- 0.4 ug); assay type: functional
[8] = Induction of extracellular matrix production in human NHAC-kn cells assessed as HYP level at 7.5 uM after 7 days by UV-visible spectrophotometer analysis (reference value: 13.2 +/- 0.3 ug); assay type: functional
[9] = Induction of extracellular matrix production in human NHAC-kn cells assessed as sGAG/HYP level at 7.5 uM after 14 days by UV-visible spectrophotometer analysis (reference value: 0.9 +/- 0.2 ug); assay type: functional
[10] = Induction of extracellular matrix production in human NHAC-kn cells assessed as sGAG/HYP level at 7.5 uM after 1 day by UV-visible spectrophotometer analysis (reference value: 0.9 +/- 0.1 ug); assay type: functional
[11] = Cytotoxicity against human NHAC-kn assessed as reduction in cell viability at 7.5 uM after 1 day by Neutral red dye-based UV-visible spectrophotometer analysis (reference value: 46 +/- 6%); assay type: functional
[12] = Cytotoxicity against human NHAC-kn assessed as reduction in cell viability at 7.5 uM after 14 days by Neutral red dye-based UV-visible spectrophotometer analysis (reference value: 100 +/- 11%); assay type: functional
[13] = Cytotoxicity against human NHAC-kn assessed as reduction in cell viability after 1 to 14 days by Neutral red dye-based UV-visible spectrophotometer analysis; assay type: functional
[14] = Induction of extracellular matrix production in human NHAC-kn cells assessed as HYP level at 7.5 uM after 1 day by UV-visible spectrophotometer analysis (reference value: 9.9 +/- 0.3 ug); assay type: functional
Cannabinoid receptor 2 [15] = target: T1, Cannabinoid receptor 2; assay: Agonist activity at recombinant human CB2R expressed in CHOK1 cells assessed as inhibition of NKH477-stimulated intracellular cAMP levels after 30 mins by chemiluminescent detection based cAMP Hunter assay; assay type: functional, cell-based, CHO-K1
Rattus norvegicus [16] = assay: Analgesic activity in MIA induced Wistar rat assessed as differences in forces applied between rear left and rear right injured paws at 1 mg/kg, ip injection after 60 mins by KWB test; assay type: functional, organism-based
Cannabinoid receptor 2 [17] = target: T1, Cannabinoid receptor 2; assay: Antagonist activity at TNF-alpha induced CB2R in human HC-OA cells assessed as decreased in IL-1beta mRNA production preincubated for 1 hr followed by TNF-alpha stimulation measured after 5 hrs by RT-PCR analysis; assay type: cell-based
[18] = Induction of extracellular matrix production in human NHAC-kn cells assessed as sGAG level at 7.5 uM after 7 days by UV-visible spectrophotometer analysis (reference value: 11.2 +/- 0.4 ug); assay type: functional
Cannabinoid receptor 2 [19] = target: T1, Cannabinoid receptor 2; assay: Antagonist activity at TNF-alpha induced CB2R in human HC-OA cells assessed as decreased in IL-1beta mRNA production preincubated for 1 hr followed by TNF-alpha stimulation measured after 5 hrs in presence of AM-630 by RT-PCR analysis; assay type: cell-based
Rattus norvegicus [20] = assay: Analgesic activity in MIA induced Wistar rat assessed as hind limb withdrawal threshold at 1 mg/kg, ip injection after 300 mins in presence of AM-630 by PAM test; assay type: functional, organism-based
[21] = Lipophilicity, log P of the compound by UV-vis spectra analysis; assay type: physicochemical; details: octanol/water
[22] = Induction of extracellular matrix production in human NHAC-kn cells assessed as sGAG level at 7.5 uM after 1 day by UV-visible spectrophotometer analysis (reference value: 9.3 +/- 0.2 ug); assay type: functional
[23] = Induction of extracellular matrix production in human NHAC-kn cells assessed as sGAG/HYP level at 7.5 uM after 7 days by UV-visible spectrophotometer analysis (reference value: 0.8 +/- 0.2 ug); assay type: functional
NIH3T3 = assay: Cytotoxicity against mouse NIH/3T3 assessed as reduction in cell viability after 1 to 14 days by Neutral red dye-based UV-visible spectrophotometer analysis; assay type: functional
[24] = Ionization Constants, pKa of the compound by UV-vis spectra analysis; assay type: physicochemical
[25] = Kinetic solubility of the compound at pH 1.0 by HPLC-UV method; assay type: physicochemical; details: buffer, read-out: Kinetic_solubility
Cannabinoid receptor 2 [26] = target: T1, Cannabinoid receptor 2; assay: Inverse agonist activity at recombinant human CB2R expressed in CHOK1 cells assessed as increase in NKH477-stimulated intracellular cAMP levels after 30 mins by chemiluminescent based cAMP Hunter assay; assay type: functional, cell-based, CHO-K1
Homo sapiens = species on record: Homo sapiens; assay: Selectivity index, ratio of Ki for recombinant human CB1R expressed in HEK293 cell membranes to Ki for recombinant human CB2R expressed in HEK293 cell membranes; assay type: cell-based

Row | SMILES | Ki (Cannabinoid receptor 1) [nM] | solubility kinetic [2] [µg/mL] | Ki (Cannabinoid receptor 2 [4]) [nM] | IC50 [13] [nM] | EC50 (Cannabinoid receptor 2 [15]) [nM] | IC50 (NIH3T3) [nM] | solubility kinetic [25] [µg/mL] | EC50 (Cannabinoid receptor 2 [26]) [nM] | Ratio Ki (Homo sapiens) | also measured
1 | CCCCN1C(=O)C(C(=O)NC23CC4CC(CC(C4)C2)C3)=C(O)C2C1C=NN2C (centres undefined) | 69 | 0.49 (≈ 1.22 µM) | 1.8 | 12500 | 110 | 25000 | 0.13 (≈ 0.325 µM) |  |  | Activity [1]: 14.2%; Activity (Rattus norvegicus [3]): Active; Activity (Rattus norvegicus [5]): inactive; Activity [6]: 68%; Activity [7]: 13.9%; Activity [8]: 12.9%; Activity [9]: 1%; Activity [10]: 0.9%; Activity [11]: 51%; Activity [12]: 94%; Activity [14]: 10.1%; Activity (Rattus norvegicus [16]): Active; Activity (Cannabinoid receptor 2 [17]): Active; Activity [18]: 12.6%; Activity (Cannabinoid receptor 2 [19]): inactive; Activity (Rattus norvegicus [20]): inactive; logP [21]: 5.3; Activity [22]: 8.9%; Activity [23]: 1%; pKa [24]: 8
2 | CCCCCn1c(=O)c(C(=O)NC23CC4CC(CC(C4)C2)C3)c(O)c2nn(C)cc21 | 33.5 | 1.9 (≈ 4.61 µM) | 0.18 |  |  |  | 2.9 (≈ 7.03 µM) | 1180 | 167 | 
3 | CC(=O)OCCCCn1c(=O)c(C(=O)NC23CC4CC(CC(C4)C2)C3)c(O)c2nn(C)cc21 | > 1000 | 1.3 (≈ 2.85 µM) | 17.3 | 7500 |  | 25000 |  | 2080 |  | 
4 | CCCCN1C(=O)C(C(=O)NC23CC4CC(CC(O)(C4)C2)C3)=C(O)C2C1C=NN2C (centres undefined) | 86.9 | 4.6 (≈ 11 µM) | 19.3 | 7500 |  | 25000 | 2.1 (≈ 5.04 µM) |  |  | logP [21]: 4.85; pKa [24]: 7.56
5 | Cn1cc2c(n1)c(O)c(C(=O)NC13CC4CC(CC(C4)C1)C3)c(=O)n2CCCCO | > 1000 | 3.2 (≈ 7.72 µM) | 14.3 | 12500 |  | 25000 | 2.53 (≈ 6.1 µM) | 1450 |  | 
6 | CCCCCn1cc(C(=O)NC23CC4CC(CC(C4)C2)C3)c(=O)c2cc(C(C)C)ccc21 |  | 1 (≈ 2.3 µM) |  |  |  |  |  |  |  | 
7 | CN1N=CC2C1C(O)=C(C(=O)NC13CC4CC(CC(C4)C1)C3)C(=O)N2CCCCF (centres undefined) | 39.3 | 1.5 (≈ 3.58 µM) | 1.4 | 12500 | 21.9 | 12500 | 0.7 (≈ 1.67 µM) |  |  | 
8 | CCCCn1c(=O)c(C(=O)NC23CC4CC(CC(C4)C2)C3)c(O)c2nn(CCO)cc21 | > 1000 | 2.1 (≈ 4.9 µM) | 18.4 | 2500 |  | 12500 | 1.6 (≈ 3.73 µM) |  |  | 
9 | CCCn1c(=O)c(C(=O)NC23CC4CC(CC(C4)C2)C3)c(O)c2nn(CCO)cc21 | > 1000 | 3.9 (≈ 9.41 µM) | 159 |  |  |  | 3.4 (≈ 8.2 µM) |  | 6 | 
10 | CCCCCN1C(=O)C(C(=O)NC23CC4CC(CC(C4)C2)C3)=C(O)C2C1C=NN2C (centres undefined) | 56 | 1.08 (≈ 2.61 µM) | 0.9 |  | 252 |  | 0.4 (≈ 0.965 µM) |  | 62 | 
